The subject of series [1] is Ent. aerogenes ATCC 15038. The experiment in a line: Antimicrobial activity, agar dilution. The following applies: Klebsiella aerogenes, ATCC15038, 20 h, Agar Dextrose dilutions, 37°C, 20 heures, read-out: Activité pharmacologique antimicrobienne (concentrations). Type of series: cell-based, Enterobacter aerogenes. The method, boiled down: (§1)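 Strains were precultured on antibiotic agar No. 1 and then in tryptone-soy broth, each for 20 h at 37°C, and diluted 1/4 in Ringer to a standardized suspension of […].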
(In agar dilution the substance is mixed into plates at graded concentrations.)

The next series concerns Staph. aureus ATCC 25178. The experiment in a line: Antimicrobial activity, agar dilution. The format is cell-based, Staphylococcus aureus. The following applies: Staphylococcus aureus, ATCC25178, 20 h, Agar Dextrose dilutions, 37°C, 20 heures, read-out: Activité pharmacologique antimicrobienne (concentrations). The method, boiled down:
as §1

Series [2] deals with Serr. marcescens ATCC 13880. The experiment in a line: Antimicrobial activity, agar dilution. Type of series: cell-based, Serratia marcescens. The following applies: Serratia marcescens, ATCC13880, 20 h, Agar Dextrose dilutions, 37°C, 20 heures, read-out: Activité pharmacologique antimicrobienne (concentrations). The method in brief: as §1
For series [3], the system named is Citr. freundii ATCC 11606. Put plainly: Antimicrobial activity, agar dilution. Type of series: cell-based, Citrobacter freundii. The conditions noted are these: Citrobacter freundii, ATCC11606, 20 h, Agar Dextrose dilutions, 37°C, 20 heures, read-out: Activité pharmacologique antimicrobienne (concentrations). The method, boiled down: as §1
The subject of a further series is Ent. cloacae ATCC 23355. Put plainly: Antimicrobial activity, agar dilution. Type of series: cell-based, Enterobacter cloacae. The following applies: Enterobacter cloacae, ATCC23355, 20 h, Agar Dextrose dilutions, 37°C, 20 heures, read-out: Activité pharmacologique antimicrobienne (concentrations). The method, boiled down: as §1
Series [4] in a line: Solubility in water and at pH 7.4. Type of series: physicochemical. An excerpt:
Un grand nombre des composés de l'invention manifestent une augmentation de la solubilité dans l'eau ainsi que de la solubilité à pH 7,4 lorsqu'on compare avec les composés de référence. L'augmentation de solubilité au pH physiologique peut favoriser l'absorption du produit et la solubilité élevée dans l'eau permet l'administration du composé par voie parentérale.

Series [5] deals with Kleb. pneumoniae ATCC 10031. Put plainly: Antimicrobial activity, agar dilution. Type of series: cell-based, Klebsiella pneumoniae. The following applies: Klebsiella pneumoniae, ATCC10031, 20 h, Agar Dextrose dilutions, 37°C, 20 heures, read-out: Activité pharmacologique antimicrobienne (concentrations). The method, boiled down: as §1
The subject of series [6] is Sal. typhimurium ATCC 14028. Put plainly: Antimicrobial activity, agar dilution. Type of series: cell-based, Salmonella typhimurium. The conditions noted are these: Salmonella enterica, 20 h, Agar Dextrose dilutions, 37°C, 20 heures, read-out: Activité pharmacologique antimicrobienne (concentrations). The method in brief: as §1
For the next series, the system named is Morg. morganii ATCC 8019. The experiment in a line: Antimicrobial activity, agar dilution. Type of series: cell-based. The conditions noted are these: Morganella morganii, ATCC8019, 20 h, Agar Dextrose dilutions, 37°C, 20 heures, read-out: Activité pharmacologique antimicrobienne (concentrations). The method in brief:
as §1

The test system of series [7] is Proteus vulgaris ATCC 8427. The experiment in a line: Antimicrobial activity, agar dilution. The conditions noted are these: Proteus vulgaris, ATCC8427, 20 h, Agar Dextrose dilutions, 37°C, 20 heures, read-out: Activité pharmacologique antimicrobienne (concentrations). Type of series: cell-based. The method in brief:
as §1

The test system of series [8] is Staph. epidermidis ATCC 155-1. Put plainly: Antimicrobial activity, agar dilution. The following applies: Staphylococcus epidermidis, ATCC155, 20 h, Agar Dextrose dilutions, 37°C, 20 heures, read-out: Activité pharmacologique antimicrobienne (concentrations). The format is cell-based. The method, boiled down: as §1
For series [9], the system named is Escherichia coli ATCC 10799. Put plainly: Antimicrobial activity, agar dilution. The following applies: Escherichia coli, ATCC10799, 20 h, Agar Dextrose dilutions, 37°C, 20 heures, read-out: Activité pharmacologique antimicrobienne (concentrations). Type of series: cell-based. The method in brief:
as §1

The subject of a further series is Ps. aeruginosa ATCC 9721. The experiment in a line: Antimicrobial activity, agar dilution. The following applies: Pseudomonas aeruginosa, ATCC9721, 20 h, Agar Dextrose dilutions, 37°C, 20 heures, read-out: Activité pharmacologique antimicrobienne (concentrations). The format is cell-based. The method, boiled down: as §1
In series [10] the test system is Ps. aeruginosa ATCC 10145. The experiment in a line: Antimicrobial activity, agar dilution. Type of series: cell-based. The following applies: Pseudomonas aeruginosa, ATCC10145, 20 h, Agar Dextrose dilutions, 37°C, 20 heures, read-out: Activité pharmacologique antimicrobienne (concentrations). The method, boiled down: as §1
The subject of series [11] is Bacillus subtilis ATCC 6633. Put plainly: Antimicrobial activity, agar dilution. The conditions noted are these: ATCC6633, 20 h, Agar Dextrose dilutions, 37°C, 20 heures, read-out: Activité pharmacologique antimicrobienne (concentrations). Type of series: cell-based. The method in brief:
as §1

Series [12] deals with Shigella flexnerii ATCC 12022. The experiment in a line: Antimicrobial activity, agar dilution. The format is cell-based. The following applies: ATCC12022, 20 h, Agar Dextrose dilutions, 37°C, 20 heures, read-out: Activité pharmacologique antimicrobienne (concentrations). The method, boiled down:
as §1

Series [13] has as its system Bacillus cereus ATCC 11778. Put plainly: Antimicrobial activity, agar dilution. The following applies: Bacillus cereus, ATCC11778, 20 h, Agar Dextrose dilutions, 37°C, 20 heures, read-out: Activité pharmacologique antimicrobienne (concentrations). The format is cell-based. The method in brief:
as §1

Another series has as its system Sal. typhi ATCC 6539. The experiment in a line: Antimicrobial activity, agar dilution. The conditions noted are these: Salmonella enterica, 20 h, read-out: Activité pharmacologique antimicrobienne (concentrations). Type of series: cell-based. The method, boiled down:
as §1

Series [14] has as its system Escherichia coli ATCC 23559. Put plainly: Antimicrobial activity, agar dilution. The following applies: Escherichia coli, ATCC23559, 20 h, Agar Dextrose dilutions, 37°C, 20 heures, read-out: Activité pharmacologique antimicrobienne (concentrations). The format is cell-based. The method, boiled down:
as §1

Series [15] has as its system Strep. faecalis ATCC 10541. Put plainly: Antimicrobial activity, agar dilution. The following applies: Enterococcus faecalis, ATCC10541, 20 h, Agar Dextrose dilutions, 37°C, 20 heures, read-out: Activité pharmacologique antimicrobienne (concentrations). The format is cell-based, Streptococcus faecalis. The method, boiled down: as §1

Each structure is given as a SMILES string. Converted amounts (≈) assume the structure as drawn.

For `C[C@@H]1[C@@H](NC(=O)[C@@H](C)N)CN1c1nc2c(cc1F)c(=O)c(C(=O)O)cn2C1CC1` [Exemple 4fa], the MIC in series [1] amounted to 4 µg/mL (≈ 9.92 µM); in the series with Staph. aureus ATCC 25178 it was 1 µg/mL (≈ 2.48 µM); in series [2] it was 16 µg/mL (≈ 39.7 µM); in series [3], 4 µg/mL (≈ 9.92 µM); with Ent. cloacae ATCC 23355, 4 µg/mL (≈ 9.92 µM); in [5] it was 8 µg/mL (≈ 19.8 µM). Besides, the MIC was 4 µg/mL (≈ 9.92 µM) in series [6]; 8 µg/mL (≈ 19.8 µM) in the series with Morg. morganii ATCC 8019; 8 µg/mL (≈ 19.8 µM) in series [7]; 0.25 µg/mL (≈ 0.62 µM) in series [8]; 4 µg/mL (≈ 9.92 µM) in series [9]; above 16 µg/mL in the series with Ps. aeruginosa ATCC 9721. Moreover, the MIC is above 16 µg/mL in series [10]; 0.5 µg/mL (≈ 1.24 µM) in series [11]; 1 µg/mL (≈ 2.48 µM) in [12]; 1 µg/mL (≈ 2.48 µM) in series [13]; 4 µg/mL (≈ 9.92 µM) in the series on Sal. typhi ATCC 6539; 1 µg/mL (≈ 2.48 µM) in series [14]. For the same compound, the MIC in [15] is 1 µg/mL (≈ 2.48 µM). Besides, the solubility in series [4] (pH 7) and in series [4] (water) was above 500 µg/mL in each case.

In general, solubility refers to the dissolved amount per volume that the medium holds. Read a low solubility as little dissolved substance.

Values taken from EP0514268A1, “Substituted amino acid azetidinyl pyridone derivatives, their preparation and use as medicines” (LABORATORIOS DEL DR. ESTEVE, S.A., priority 1991, dated 1992).
